# Data published in patent US8378117B2 (priority 2005, dated 2013).
# Like-named read-outs stand apart in the source and are kept apart here.
# How the values were obtained:
# CB1 receptor [1] = target: T1, CB1 receptor (Homo sapiens, UniProt P21554); test: Binding assay for CB1 agonists or inverse agonists (SK-N-MC membranes, [3H]-CP-55,940); conditions: for CB1 receptor binding average percent inhibition: value shown is an average percent inhibition (footnote 5), concentration not given
# T1 construct: expressed in transfected cells
# Method in brief: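 Radioligand displacement: [3H]-CP-55,940 at […], 90 min at 30° C, pH 7.5 Tris buffer with 0.5 mg/mL fatty-acid-free BSA, using semi-purified membranes of human-CB1-transfected SK-N-MC cells. Bound counts collected on GF/C filters, 10 uM WIN 55,212 for non-specific; IC50 from percent inhibition over several concentrations.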
# CB2 receptor = target: T2, CB2 receptor (Homo sapiens, UniProt P34972); test: Binding assay for CB2 agonists or inverse agonists (SK-N-MC membranes, [3H]-CP-55,940); conditions: for CB2 receptor binding percent inhibition: test concentration not stated
# T2 construct: expressed in transfected cells
# Method in brief: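 IC50 came from percent-inhibition data over several compound concentrations, fitted by linear regression. Binding used semi-purified membranes of human CB2-transfected SK-N-MC cells, 90 min at 30 °C, pH 7.5 Tris-HCl with MgCl2, EDTA and BSA, then filtration and scintillation counting.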
# CB1 receptor [2] = target: T1, CB1 receptor; test: cell-based
# Description: The CB1 and CB2 receptors are G-protein coupled receptors (GPCR), which influence cell function via the Gi-protein. These receptors modulate the activity of intracellular adenylate cyclase, which in turn produces the intracellular signal messenger cyclic-AMP (cAMP).
# At baseline, or during non-ligand bound conditions, these receptors are constitutively active and tonically suppress adenylate cyclase activity. The binding of an agonist causes further receptor activation and produces additional suppression of adenylate cyclase activity. The binding of an inverse agonist inhibits the constitutive activity of the receptors and results in an increase in adenylate cyclase activity.
# By monitoring intracellular adenylate cyclase activity, the ability of compounds to act as agonists or inverse agonists can be determined.
# Test compounds were evaluated in SK-N-MC cells which, using standard transfection procedures, were stably transfected with human cDNA for pcDNA3-CRE β-gal and pcDNA3 CB1 receptor (human) or pcDNA3 CB2 receptor (human). By expressing CRE β-gal, the cells produced β-galactosidase in response to CRE promoter activation by cAMP. Cells expressing CRE β-gal and either the human CB1 or CB2 receptor will produce less β-galactosidase when treated with a CB1/CB2 agonist and will produce more β-galactosidase when treated with a CB1/CB2 inverse agonist.
# The cells were grown in 96-well plates under standard cell culture conditions at 37° C. in a 5% CO2 atmosphere and culture media (wherein the media was supplemented with 2 mM L-glutamine, […] sodium pyruvate, 10% FBS (fetal bovine serum) and antibiotics).
# The change in forskolin induced β-galactosidase activity was determined by setting a vehicle treated cell's activity value at 100% and expressing the β-galactosidase activity measured in a corresponding compound treated cell as a percent of the vehicle treated cell activity.
# The EC50 value for functional activity for compounds tested was calculated by linear regression and was obtained from studies in which varying compound concentrations were used.
# Where an EC50 value was not obtained for a test compound, the value shown (in %) represents change in functional activity and was obtained from a study in which one compound concentration was used.
# [3] = Cannabinoid CB1 Receptor Binding IC50, calculated by linear regression from percent inhibition at various test concentrations
# [4] = read-out: CB1 receptor binding percent inhibition, test concentration 1 μM (footnote 1)
# [5] = CB1 Receptor Functional Agonist EC50, SK-N-MC cells, forskolin induced β-galactosidase activity
# [6] = CB1 Receptor Functional Inverse Agonist EC50, forskolin induced β-galactosidase activity, SK-N-MC cells
# [7] = calculated by linear regression from percent inhibition at various test concentrations, read-out: Cannabinoid CB1 Receptor Binding IC50
# [8] = test concentration 1 μM (footnote 1), read-out: CB2 receptor binding percent inhibition
# [9] = forskolin induced β-galactosidase activity, SK-N-MC cells, read-out: CB1 Receptor Functional Inverse Agonist EC50
# T2 sequence (P34972 whole entry): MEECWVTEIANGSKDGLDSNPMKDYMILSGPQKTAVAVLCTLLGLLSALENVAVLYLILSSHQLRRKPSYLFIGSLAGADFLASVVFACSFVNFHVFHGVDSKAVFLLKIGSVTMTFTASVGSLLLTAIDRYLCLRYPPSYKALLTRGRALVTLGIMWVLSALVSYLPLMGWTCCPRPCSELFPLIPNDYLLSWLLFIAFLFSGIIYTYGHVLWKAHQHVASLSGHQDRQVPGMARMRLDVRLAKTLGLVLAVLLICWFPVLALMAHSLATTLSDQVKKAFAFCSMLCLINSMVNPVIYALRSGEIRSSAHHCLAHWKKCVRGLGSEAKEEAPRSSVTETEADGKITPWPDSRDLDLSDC
# T1 sequence (P21554 whole entry): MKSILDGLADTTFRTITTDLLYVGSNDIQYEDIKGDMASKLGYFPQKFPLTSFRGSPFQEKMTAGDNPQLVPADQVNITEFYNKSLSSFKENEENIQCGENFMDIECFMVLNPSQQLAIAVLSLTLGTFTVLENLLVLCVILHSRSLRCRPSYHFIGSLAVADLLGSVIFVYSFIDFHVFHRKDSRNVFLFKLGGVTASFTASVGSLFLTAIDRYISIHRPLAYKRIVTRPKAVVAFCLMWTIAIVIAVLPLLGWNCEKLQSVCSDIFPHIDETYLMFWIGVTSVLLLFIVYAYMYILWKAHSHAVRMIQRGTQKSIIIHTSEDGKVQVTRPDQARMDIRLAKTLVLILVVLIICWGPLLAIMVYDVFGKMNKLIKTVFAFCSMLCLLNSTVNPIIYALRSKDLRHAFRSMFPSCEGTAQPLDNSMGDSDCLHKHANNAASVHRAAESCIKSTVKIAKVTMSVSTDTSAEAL
Structure (SMILES),IC50 (CB1 receptor [1]; [3]),inhibition at 1 µM (CB1 receptor [1]; [4]),CB2 receptor binding percent inhibition (CB2 receptor),EC50 (CB1 receptor [2]; [6]),EC50 (CB1 receptor [2]; [9]),CB1 receptor binding average percent inhibition (CB1 receptor [1]),other results
"Cn1nc(C(=O)N[C@H]2C3(C)CCC(C3)C2(C)C)c2c1C(Cc1ccccc1Cl)CCCC2 (stereo partly drawn) [Cpd 40, 8-(2-chloro-benzyl)-1-methyl-1,4,5,6,7,8-hexahydro-cycloheptapyrazole-3-carboxylic acid [(2S)-1,3,3-trimethyl-bicyclo[2.2.1]hept-2-yl]-amide]",0.07 µM,84%,75%,,,,"inhibition at 0.015 µM (CB2 receptor; read-out: CB2 receptor binding percent inhibition, test concentration 0.015 μM (footnote 7)): 65%; inhibition at 1 µM (CB2 receptor; read-out: CB2 receptor binding percent inhibition, test concentration 1 μM (footnote 1)): 84%; EC50 (CB1 receptor [2]; [5]): 0.1 µM"
"O=C(NC1CCC1)c1nn(-c2ccc(Cl)cc2Cl)c2c1CCCCC2Cc1cccc(F)c1 (stereo not shown) [Cpd 41, 1-(2,4-dichloro-phenyl)-8-(3-fluoro-benzyl)-1,4,5,6,7,8-hexahydro-cycloheptapyrazole-3-carboxylic acid cyclobutylamide]",0.5 µM,68%,46%,0.1 µM,,,
"CC12CCC(C1)C(C)(C)[C@H]2NC(=O)c1nn(-c2ccc(Cl)cc2Cl)c2c1CCCCC2Cc1cccc(F)c1 (stereo partly drawn) [Cpd 42, 1-(2,4-dichloro-phenyl)-8-(3-fluoro-benzyl)-1,4,5,6,7,8-hexahydro-cycloheptapyrazole-3-carboxylic acid [(2S)-1,3,3-trimethyl-bicyclo[2.2.1]hept-2-yl]-amide]",,65%,,,0.3 µM,,"IC50 (CB1 receptor [1]; [7]): 0.3 µM; IC50 (CB2 receptor; calculated by linear regression from percent inhibition at various test concentrations, read-out: Cannabinoid CB2 Receptor Binding IC50): 0.3 µM; inhibition at 1 µM (CB2 receptor; [8]): 52%"
"C[C@H](NC(=O)c1nn(C2CCCCC2)c2c1CCCCC2Cc1cccc(F)c1)c1ccccc1 (stereo partly drawn) [Cpd 45, 1-cyclohexyl-8-(3-fluoro-benzyl)-1,4,5,6,7,8-hexahydro-cycloheptapyrazole-3-carboxylic acid [(1S)-1-phenyl-ethyl]-amide]",,54%,42%,,1.1 µM,,IC50 (CB1 receptor [1]; [7]): 0.7 µM
"C[C@H](NC(=O)c1nn(Cc2ccccc2)c2c1CCCCC2c1ccccc1)c1ccccc1 (stereo partly drawn) [Cpd 48, 1-benzyl-8-phenyl-1,4,5,6,7,8-hexahydro-cycloheptapyrazole-3-carboxylic acid [(1S)-1-phenyl-ethyl]-amide]",,63%,42%,,0.3 µM,,IC50 (CB1 receptor [1]; [7]): 0.3 µM
"O=C(N[C@@H](CO)c1ccccc1)c1nn(C2CCCCC2)c2c1CCCCC2Cc1cccc(F)c1 (stereo partly drawn) [Cpd 55, 1-cyclohexyl-8-(3-fluoro-benzyl)-1,4,5,6,7,8-hexahydro-cycloheptapyrazole-3-carboxylic acid [(1R)-2-hydroxy-1-phenyl-ethyl]-amide]",,,18%,0.4 µM,,,inhibition at 1 µM (CB1 receptor [1]; read-out: CB1 receptor binding percent inhibition): 50%
"CC12CCC(C1)C(C)(C)[C@H]2NC(=O)c1nn(C2CCCCC2)c2c1CCCCC2Cc1ccc(F)cc1 (stereo partly drawn) [Cpd 58, 1-cyclohexyl-8-(4-fluoro-benzyl)-1,4,5,6,7,8-hexahydro-cycloheptapyrazole-3-carboxylic acid [(2S)-1,3,3-trimethyl-bicyclo[2.2.1]hept-2-yl]-amide]",,75%,74%,,,,"IC50 (CB1 receptor [1]; [7]): 0.2 µM; inhibition at 0.015 µM (CB2 receptor; test concentration 0.015 μM (footnote 7), read-out: CB2 receptor binding percent inhibition): 65%; inhibition at 1 µM (CB2 receptor; [8]): 98%; EC50 (CB1 receptor [2]; SK-N-MC cells, forskolin induced β-galactosidase activity, read-out: CB1 Receptor Functional Agonist EC50): 1.4 µM"
"C[C@H](NS(=O)(=O)/C=C/c1nn(C2CCCCC2)c2c1CCCCC2Cc1cccc(F)c1)c1ccccc1 (stereo partly drawn) [Cpd 75, (2E)-2-[1-cyclohexyl-8-(3-fluoro-benzyl)-1,4,5,6,7,8-hexahydro-cycloheptapyrazol-3-yl]-ethenesulfonic acid [(1S)-1-phenyl-ethyl]-amide]",0.2 µM,,27%,0.07 µM,,77%,
"COC(=O)[C@@H](Cc1ccc(F)cc1)NC(=O)c1nn(-c2ccc(Cl)cc2Cl)c2c1CCCC[C@@H]2Cc1cccc(F)c1 [Cpd 77, (2R)-2-{[(8R)-1-(2,4-dichloro-phenyl)-8-(3-fluoro-benzyl)-1,4,5,6,7,8-hexahydro-cycloheptapyrazole-3-carbonyl]-amino}-3-(4-fluoro-phenyl)-propionic acid methyl ester]",,44%,28%,0.1 µM,,57%,CB1 receptor binding percent inhibition (CB1 receptor [1]; test concentration not stated): 51%
"COC(=O)[C@@H](Cc1ccc(F)cc1)NC(=O)c1nn(-c2ccc(Cl)cc2Cl)c2c1CCCC[C@H]2Cc1cccc(F)c1 [Cpd 78, (2R)-2-{[(8S)-1-(2,4-dichloro-phenyl)-8-(3-fluoro-benzyl)-1,4,5,6,7,8-hexahydro-cycloheptapyrazole-3-carbonyl]-amino}-3-(4-fluoro-phenyl)-propionic acid methyl ester]",0.4 µM,,23%,0.2 µM,,59%,
"CCOC(=O)[C@H]1C2C=CC(C2)[C@H]1NC(=O)c1nn(-c2ccc(Cl)cc2Cl)c2c1CCCCC2Cc1cccc(F)c1 (stereo partly drawn) [Cpd 79, (2S,3R)-3-{[1-(2,4-dichloro-phenyl)-8-(3-fluoro-benzyl)-1,4,5,6,7,8-hexahydro-cycloheptapyrazole-3-carbonyl]-amino}-bicyclo[2.2.1]hept-5-ene-2-carboxylic acid ethyl ester]",,,29%,0.5 µM,,^(5)37%,
"COC(=O)[C@@H](Cc1ccc(O)cc1)NC(=O)c1nn(-c2ccc(Cl)cc2Cl)c2c1CCCCC2Cc1cccc(F)c1 (stereo partly drawn) [Cpd 80, (2R)-2-{[1-(2,4-dichloro-phenyl)-8-(3-fluoro-benzyl)-1,4,5,6,7,8-hexahydro-cycloheptapyrazole-3-carbonyl]-amino}-3-(4-hydroxy-phenyl)-propionic acid methyl ester]",0.7 µM,,23%,0.06 µM,,51%,
"COC(=O)[C@@H](Cc1ccc(O)cc1)NC(=O)c1nn(-c2ccc(Cl)cc2Cl)c2c1CCCCC2Cc1ccc(F)cc1 (stereo partly drawn) [Cpd 81, (2R)-2-{[1-(2,4-dichloro-phenyl)-8-(4-fluoro-benzyl)-1,4,5,6,7,8-hexahydro-cycloheptapyrazole-3-carbonyl]-amino}-3-(4-hydroxy-phenyl)-propionic acid methyl ester]",,,28%,,0.3 µM,^(5)42%,
"COC(=O)[C@@H](Cc1ccc(O)cc1)NC(=O)c1nn(C2CCCCC2)c2c1CCCCC2Cc1ccc(F)cc1 (stereo partly drawn) [Cpd 83, (2R)-2-{[1-cyclohexyl-8-(4-fluoro-benzyl)-1,4,5,6,7,8-hexahydro-cycloheptapyrazole-3-carbonyl]-amino}-3-(4-hydroxy-phenyl)-propionic acid methyl ester]",0.1 µM,,,,,90%,"IC50 (CB2 receptor; Cannabinoid CB2 Receptor Binding IC50, calculated by linear regression from percent inhibition at various test concentrations): 0.01 µM; CB2 receptor binding average percent inhibition (CB2 receptor; value shown is an average percent inhibition (footnote 5), concentration not given): 98%; EC50 (CB1 receptor [2]; [5]): 1.7 µM"
"O=C(NN1CCCCC1)c1nn(-c2ccc(Cl)cc2Cl)c2c1CCCCC2Cc1cccc(F)c1 (stereo not shown) [Cpd 84, 1-(2,4-dichloro-phenyl)-8-(3-fluoro-benzyl)-1,4,5,6,7,8-hexahydro-cycloheptapyrazole-3-carboxylic acid piperidin-1-ylamide]",0.7 µM,,11%,0.1 µM,,67%,
"O=C(NN1CCCCC1)c1nn(-c2ccc(Cl)cc2Cl)c2c1CCCCC2Cc1ccc(F)cc1 (stereo not shown) [Cpd 85, 1-(2,4-dichloro-phenyl)-8-(4-fluoro-benzyl)-1,4,5,6,7,8-hexahydro-cycloheptapyrazole-3-carboxylic acid piperidin-1-ylamide]",,,5%,,0.3 µM,^(5)39%,
